Data on 40 compounds can be found in article PMC8196580, “Identification of Kaurane-Type Diterpenes as Inhibitors of Leishmania Pteridine Reductase I” (Molecules, 2021).

Each structure is given as a SMILES string. Where two headings read alike, the source gives them in different places.

Experiment [1] concerns L. major. The experiment is described as follows: ChEMBL dataset of pIC50 values against L. major used for the RF model (Table S1). Further: call rule not given here. The format is cell-based, Leishmania major.
Experiment [2] deals with L. major. Also on record: method as in ChEMBL. To be noted: ref ChEMBL, cited from earlier work.
[3] abbreviates: Active/Inactive class assigned to the ChEMBL pIC50 value for Random forest model construction, ref ChEMBL.
Setting [4] is: ChemBL structures with pIC50 values used for Random forest model construction, L. major.
Where [5] appears, read: Active/Inactive class assigned to ChemBL structures for Random forest model construction (Table S1).
Setting [6] is: ChemBL structures with pIC50 values used for Random forest model construction (Table S1).

Turning to `CCCCCCCCCCCCCCCCOP(=O)([O-])OCC[N+](C)(C)C` [CHEMBL125], in the experiment on L. major [1] (setting [3]), the Outcome result was “Inactive”. In addition, in the experiment on L. major [2] (setting [4]), the “pIC50 Value” is listed as 4.44.

Take `Cc1cccc2cc(C3CC(c4ccsc4)=NN3)c(Cl)nc12` (centres unmarked) [CHEMBL2235717]: the Outcome entry in the experiment on L. major [1] (setting [5]) is recorded as “Active”. Further, the “pIC50 Value” in the experiment on L. major [2] (setting [6]) is reported as 5.69.

In the case of `CN(C)c1ccc2c(Nc3ccccc3)c3ccc(N(C)C)cc3nc2c1` [CHEMBL37644], the Outcome result with L. major [1] (setting [5]) is on record as “Active”. Moreover, the “pIC50 Value” in the experiment with L. major [2] (setting [6]) is recorded as 7.52.

`NP(=O)(OCc1ccc([N+](=O)[O-])cc1Cl)N(CCCl)CCCl` (centres unmarked) [CHEMBL1257017]: the Outcome entry with L. major [1] (setting [5]) is “Active”. Moreover, the “pIC50 Value” in the experiment on L. major [2] (setting [6]) is 5.51.

In the case of `Cc1ccc2cc(/C=C/C(=O)c3ccc(Cl)s3)c(Cl)nc2c1` [CHEMBL1940856], the Outcome entry in the experiment on L. major [1] (setting [5]) was “Active”. Also, the “pIC50 Value” with L. major [2] (setting [6]) is 5.63.

In the case of `Cc1cccc2cc(C3CC(c4ccc(Cl)s4)=NN3)c(Cl)nc12` (centres unmarked) [CHEMBL2236130], in the experiment on L. major [1] (setting [5]), the Outcome result is recorded as “Active”. In the experiment with L. major [2] (setting [6]), the “pIC50 Value” is reported as 5.68.

`C/C=C/c1cc(OC)c(OC)c(O)c1OC` [CHEMBL501754]: the Outcome entry in the experiment on L. major [1] (setting [3]) is reported as “Inactive”. Moreover, the “pIC50 Value” in the experiment on L. major [2] (setting [4]) is 3.41.

In the case of `COc1cccc2cc(C)cc(O)c12` [CHEMBL2071228], the Outcome result with L. major [1] (setting [3]) is recorded as “Inactive”. Moreover, in the experiment with L. major [2] (setting [4]), the “pIC50 Value” is recorded as 4.30.

Turning to `COc1cc(OC)c2c(C)[n+](-c3ccc(OC(C)=O)cc3)c(C)cc2c1.F[B-](F)(F)F` [CHEMBL480761], in the experiment with L. major [1] (setting [3]), the Outcome entry is reported as “Inactive”. Moreover, in the experiment on L. major [2] (setting [4]), the “pIC50 Value” is recorded as 4.00.

Turning to `COc1ccccc1-c1nnc(-c2ccc(C(=O)N/N=C/c3ccccn3)cc2)o1` [CHEMBL4069827], in the experiment on L. major [1] (setting [3]), the Outcome result is “Active”. The “pIC50 Value” in the experiment with L. major [2] (setting [4]) is 5.04.

As for `COc1cc(OCC=C(C)C)ccc1C(=O)/C=C/c1ccc([N+](=O)[O-])cc1` [CHEMBL4161584], the Outcome result with L. major [1] (setting [5]) is “Active”. Further, the “pIC50 Value” in the experiment with L. major [2] (setting [6]) is 5.48.

Regarding `COc1ccccc1-c1nnc(-c2ccc(C(=O)N/N=C/c3cc(O)ccc3O)cc2)o1` [CHEMBL4059674], in the experiment with L. major [1] (setting [5]), the Outcome entry was “Active”. Moreover, the “pIC50 Value” in the experiment on L. major [2] (setting [6]) is 5.35.

For the compound `O=[N+]([O-])c1ccc(-c2nnc(NCc3cn(Cc4ccccc4F)nn3)s2)o1` [CHEMBL1951523], the Outcome result with L. major [1] (setting [3]) is given as “Inactive”. Also, the “pIC50 Value” in the experiment with L. major [2] (setting [4]) is recorded as 4.72.

Consider `CCCCOc1ccc(-c2nc3cc([N+](=O)[O-])ccc3[nH]2)cc1` [CHEMBL2297903], for which the Outcome entry with L. major [1] (setting [5]) is listed as “Active”. In addition, in the experiment on L. major [2] (setting [6]), the “pIC50 Value” is 5.61.

In the case of `O=C(/C=C/c1ccc(-n2ccnc2)cc1)c1cccc(F)c1F` [CHEMBL570959], the Outcome entry with L. major [1] (setting [5]) is on record as “Active”. Also, the “pIC50 Value” in the experiment with L. major [2] (setting [6]) is on record as 5.57.

As for `O=[N+]([O-])c1ccc2ncnc(Nc3cccc(Br)c3)c2c1` [CHEMBL329161], in the experiment with L. major [1] (setting [3]), the Outcome entry is “Active”. In addition, in the experiment on L. major [2] (setting [4]), the “pIC50 Value” was 5.04.

For the compound `CO[C@H]1C[C@@H](C)[C@H]2[C@H](C[C@@]3(C)[C@@H]4C[C@H](O)[C@H]5C(C)(C)[C@@H](O[C@@H]6OC[C@@H](O)[C@@H](O)[C@H]6O)CC[C@@]56C[C@@]46CC[C@]23C)O1` [CHEMBL450438], the Outcome entry with L. major [1] (setting [3]) is “Inactive”. Further, the “pIC50 Value” with L. major [2] (setting [4]) is 4.03.

Turning to `COc1ccccc1-c1nnc(-c2ccc(C(=O)N/N=C/c3cccc(Cl)c3)cc2)o1` [CHEMBL4096109], in the experiment with L. major [1] (setting [3]), the Outcome result was “Inactive”. Further, in the experiment on L. major [2] (setting [4]), the “pIC50 Value” is recorded as 4.68.

As to `COc1cc(COP(N)(=O)N(CCCl)CCCl)ccc1[N+](=O)[O-]` (centres unmarked) [CHEMBL1256966], in the experiment on L. major [1] (setting [3]), the Outcome entry was “Inactive”. Also, the “pIC50 Value” in the experiment with L. major [2] (setting [4]) is 4.52.

For the compound `C[C@@H]([C@H]1CC=C2[C@@H]3CCC4=C[C@@H](N(C)C)CC[C@]4(C)[C@H]3CC[C@@]21C)N(C)C` [CHEMBL496488], in the experiment on L. major [1] (setting [3]), the Outcome result is given as “Active”. Also, the “pIC50 Value” in the experiment on L. major [2] (setting [4]) is on record as 5.17.

In the case of `COc1c2c(cc(O)c1-c1c(C)cc3cccc(OC)c3c1O)C[C@H](C)N=C2C` [CHEMBL221884], the Outcome entry in the experiment on L. major [1] (setting [3]) is reported as “Inactive”. The “pIC50 Value” with L. major [2] (setting [4]) is 4.48.

As to `COc1ccc(-c2nc3ccc([N+](=O)[O-])cc3[nH]2)cc1` [CHEMBL1535921], the Outcome entry with L. major [1] (setting [5]) is “Active”. Besides, the “pIC50 Value” in the experiment on L. major [2] (setting [6]) was 5.50.

Turning to `C/C=C/C=C/c1nc2ccc(OC)cc2n2cccc12` [CHEMBL3260208], the Outcome entry with L. major [1] (setting [5]) is listed as “Active”. For the same compound, in the experiment with L. major [2] (setting [6]), the “pIC50 Value” is listed as 5.57.

For the compound `c1ccc2c(Nc3ccc(CN4CCCC4)cc3)c3ccccc3nc2c1` [CHEMBL91079], in the experiment with L. major [1] (setting [5]), the Outcome entry is “Active”. Also, the “pIC50 Value” in the experiment on L. major [2] (setting [6]) is on record as 6.70.

For the compound `COc1ccccc1C(=O)N/N=C/c1ccncc1` [CHEMBL2382030], the Outcome result in the experiment with L. major [1] (setting [3]) is listed as “Inactive”. The “pIC50 Value” in the experiment with L. major [2] (setting [4]) is reported as 4.12.

Consider `CN(C)CCNc1nccn2c(I)c(-c3ccc(F)cc3)nc12` [CHEMBL3634360], for which, in the experiment with L. major [1] (setting [3]), the Outcome entry is “Inactive”. For the same compound, the “pIC50 Value” with L. major [2] (setting [4]) is recorded as 4.61.

In the case of `O=[N+]([O-])c1ccc(-c2nnc(NCc3cn(Cc4ccc(Cl)cc4Cl)nn3)s2)o1` [CHEMBL1951534], the Outcome result in the experiment on L. major [1] (setting [3]) is reported as “Inactive”. In addition, the “pIC50 Value” in the experiment with L. major [2] (setting [4]) is reported as 4.70.

On to `COc1cc(OC)c2c(C)[n+](-c3ccc(O)cc3)c(C)cc2c1.O=C([O-])C(F)(F)F` [CHEMBL480760], for which the Outcome result in the experiment with L. major [1] (setting [3]) is reported as “Inactive”. In the experiment with L. major [2] (setting [4]), the “pIC50 Value” was 4.80.

Take `Cc1csc(C(=O)/C=C/c2cc3ccc(C)cc3nc2Cl)c1` [CHEMBL1940852]: the Outcome entry in the experiment with L. major [1] (setting [5]) is listed as “Active”. Also, in the experiment on L. major [2] (setting [6]), the “pIC50 Value” is 5.60.

`CCCN1CSC(=S)N(CC(=O)O)C1` [CHEMBL4282164]: in the experiment with L. major [1] (setting [3]), the Outcome result is “Inactive”. The “pIC50 Value” in the experiment with L. major [2] (setting [4]) is 4.16.

Regarding `CCCCCCNc1ccc(Nc2c3ccc(Cl)cc3nc3ccc(OC)cc23)cc1OC` [CHEMBL89400], the Outcome result in the experiment with L. major [1] (setting [5]) is “Active”. In addition, in the experiment with L. major [2] (setting [6]), the “pIC50 Value” was 6.30.

Regarding `O=C(CCl)N1c2ccccc2Sc2ccccc21` [CHEMBL1651446], the Outcome result in the experiment with L. major [1] (setting [3]) was “Active”. For the same compound, the “pIC50 Value” in the experiment on L. major [2] (setting [4]) is listed as 5.03.

As to `CC(=O)N1CCN(c2nnc(-c3ccc([N+](=O)[O-])o3)s2)CC1` [CHEMBL192375], in the experiment with L. major [1] (setting [5]), the Outcome result was “Active”. For the same compound, the “pIC50 Value” in the experiment on L. major [2] (setting [6]) was 5.96.

Consider `CCCCCCNc1ccc(Nc2c3ccccc3nc3ccccc23)cc1` [CHEMBL299581], for which the Outcome result in the experiment on L. major [1] (setting [5]) is “Active”. In the experiment on L. major [2] (setting [6]), the “pIC50 Value” is given as 6.26.

Turning to `COc1ccccc1-c1nnc(-c2ccc(C(=O)N/N=C/c3cccc(F)c3)cc2)o1` [CHEMBL4072092], the Outcome result in the experiment on L. major [1] (setting [3]) is recorded as “Active”. Besides, the “pIC50 Value” in the experiment with L. major [2] (setting [4]) is on record as 5.20.

Consider `O=[N+]([O-])c1ccc(-c2c(-c3ccccc3)nc3cnccn23)cc1` [CHEMBL3634352], for which, in the experiment with L. major [1] (setting [3]), the Outcome entry is “Inactive”. The “pIC50 Value” in the experiment on L. major [2] (setting [4]) was 4.56.

For the compound `Cc1csc(C(=O)/C=C/c2cc3cccc(C)c3nc2Cl)c1` [CHEMBL1940863], in the experiment on L. major [1] (setting [5]), the Outcome result was “Active”. Also, the “pIC50 Value” in the experiment with L. major [2] (setting [6]) was 5.74.

`COc1cc2c(c(OC)c1)C(C)N(c1ccc(C(C)C)cc1)C(C)C2` (centres unmarked) [CHEMBL481808]: the Outcome result in the experiment on L. major [1] (setting [3]) is listed as “Inactive”. In addition, the “pIC50 Value” with L. major [2] (setting [4]) was 4.30.

For the compound `O=C(/C=C/c1ccc(-n2ccnc2)cc1)c1ccc(F)cc1` [CHEMBL570258], in the experiment on L. major [1] (setting [5]), the Outcome entry is given as “Active”. Besides, the “pIC50 Value” in the experiment with L. major [2] (setting [6]) is 5.61.

For `Cc1ccc2cc(/C=C/C(=O)c3ccsc3)c(Cl)nc2c1` [CHEMBL1940850], the Outcome result with L. major [1] (setting [5]) is listed as “Active”. In the experiment on L. major [2] (setting [6]), the “pIC50 Value” is 5.55.
